Molecules are shown by their SMILES.

This data set can be described thus: Human HepG2 cell viability assay in 384 well format. It is filed as toxicity, cell-based. The arrangement: dose 125 nL, time 70.5 hour; cytotoxicity at 70.5 h: concentration not given beside the values. Particulars: HepG2 cells, read-out: Inhibition.

For `CCSc1ccccc1C(=O)N1CC2(COC(C)(C)OC2)C1`, the cytotoxicity at 70.5 h was -4.65%.

With `CC1(C)OCC2(CO1)CN(S(=O)(=O)c1ccc(Br)s1)C2`, the cytotoxicity at 70.5 h was 4.85%.

`CN(C)c1ncc(NC(=O)c2ccccc2C(F)(F)F)cn1`: the cytotoxicity at 70.5 h is -4.64%.

As to `COCC(=O)Nc1cnc(N2CCN(c3ccccc3)CC2)nc1`, the cytotoxicity at 70.5 h was determined as 2.64%.

With `COc1ccc(C)cc1NC(=O)Nc1cnc(N2CCCC2)nc1`, the cytotoxicity at 70.5 h stood at 1.09%.

As to `COc1ccc(S(=O)(=O)Nc2cnc(N(C)C)nc2)cc1`, the cytotoxicity at 70.5 h was found to be 29.6%.

For the compound `CCc1ccc(S(=O)(=O)Nc2cnc(N3CCOCC3)nc2)cc1`, the cytotoxicity at 70.5 h is -2.95%.

As for `O=S(=O)(Nc1cnc(N2CCOCC2)nc1)c1cccc(F)c1`, the cytotoxicity at 70.5 h was found to be 1.23%.

As to `O=S(=O)(Nc1cnc(N2CCOCC2)nc1)c1ccc(C(F)(F)F)cc1`, the cytotoxicity at 70.5 h came out at 2.45%.

In the case of `Cc1noc(CNC(=O)CN(C)c2nc3ccccc3s2)n1`, the cytotoxicity at 70.5 h is -5.76%.

With `Cc1ccc(N2CCO[C@@H]3CN(Cc4cccc(C)n4)CC[C@@H]3C2)nn1`, the cytotoxicity at 70.5 h was -3.06%.

For the compound `Fc1cccnc1N1CCOCC2(CCCNC2)C1` (centres undefined), the cytotoxicity at 70.5 h was 0.635%.

`COCCC1COC2(CCN(C(=O)CC3CCCC3)CC2)C1` (centres undefined): the cytotoxicity at 70.5 h is -3.15%.

On to `O=S(=O)(C1CC1)N1CC[C@H](OCC2CC2)[C@@H]1Cc1ccncc1`, for which the cytotoxicity at 70.5 h is -4.87%.

In the case of `COCCC1COC2(CCN(C(=O)C3CCCC3)CC2)C1` (centres undefined), the cytotoxicity at 70.5 h was -6.45%.

As for `COCCC1COC2(CCN(C(=O)C3CCCCC3)CC2)C1` (centres undefined), the cytotoxicity at 70.5 h was -5.85%.

As for `Cc1cnc(N2CCC3(CC2)CC(NC(=O)N(C)C)CO3)nc1` (centres undefined), the cytotoxicity at 70.5 h is -0.406%.

As to `CN1CCCN(C(=O)c2cc3c(s2)CCN3C(=O)C2CC2)CC1`, the cytotoxicity at 70.5 h was -3.39%.

With `CN1CCCN(C(=O)c2cc3c(s2)CCN3C(=O)c2ccccc2)CC1`, the cytotoxicity at 70.5 h was -1.37%.

Regarding `CN1[C@@H](C(=O)NCC2CC2)C[C@@H]2CN(c3ncccn3)C[C@@H]21`, the cytotoxicity at 70.5 h is -3.13%.

For `Cc1nnc([C@H]2CC[C@@H]3[C@@H](CCN3CC3CCOCC3)O2)o1`, the cytotoxicity at 70.5 h was -2.48%.

Turning to `O=C(c1ccsc1)N1C[C@H](N2CCOCC2)[C@@H]2OCCC[C@@H]21`, the cytotoxicity at 70.5 h was -1.61%.

As for `Cc1nnc([C@@H]2CC[C@@H]3[C@@H](CCN3C3CCOCC3)O2)o1`, the cytotoxicity at 70.5 h was -3.43%.

`O=C(C1CCOCC1)N1CC[C@@H]2[C@H]1CCC(=O)N2c1ccccc1`: the cytotoxicity at 70.5 h worked out at 13.7%.

`CC(=O)N1CCO[C@@H]2CN(C(=O)c3ccccc3)CC[C@@H]2C1`: the cytotoxicity at 70.5 h was 13.4%.

Turning to `O=c1cc(Cn2cncn2)nc2n1CCCN(CC1CCOCC1)C2`, the cytotoxicity at 70.5 h was -3.57%.

`CN(C)S(=O)(=O)N1CCC2(CC1)CC(OCC1CC1)CO2` (centres undefined): the cytotoxicity at 70.5 h is -4.38%.

As to `CN(C)Cc1cc(=O)n2c(n1)CN(CC1CCOCC1)CCC2`, the cytotoxicity at 70.5 h is -10.5%.

As for `Fc1cccc(N2CCCC3(C2)CN(c2cnccn2)CCO3)c1` (centres undefined), the cytotoxicity at 70.5 h is -5.22%.

On to `Cc1ccc(CC(=O)N2CCCn3nnc(Cn4cccn4)c3C2)cc1`, for which the cytotoxicity at 70.5 h is -9.04%.

`O=S(=O)(C1CC1)N1CCOC2(COCCN(c3ncccn3)C2)C1` (centres undefined): the cytotoxicity at 70.5 h is -9.98%.

With `O=C(c1ccncc1)N1CCCn2nnc(Cn3cccn3)c2C1`, the cytotoxicity at 70.5 h is -8.56%.

Turning to `CCOCC1CN(Cc2ccoc2)Cc2cn(CC3CC3)nc21` (centres undefined), the cytotoxicity at 70.5 h was -19.8%.

As for `O=c1cc(Cn2ccnc2)nc2n1CCCN(CC1CCOCC1)C2`, the cytotoxicity at 70.5 h was -19.5%.

In the case of `O=c1cc(CN2CCCC2)nc2n1CCCN(CC1CCOCC1)C2`, the cytotoxicity at 70.5 h was -13.6%.

In the case of `O=C(CO)N1CCCn2nnc(Cn3cccn3)c2C1`, the cytotoxicity at 70.5 h came to 11.5%.

For the compound `CN(C)CCN1C[C@@H]2OCCN(Cc3cnn(C)c3)[C@@H]2C1`, the cytotoxicity at 70.5 h is -8.58%.

Regarding `COCCN1Cc2ccnn2CC(COCc2cccnc2)C1` (centres undefined), the cytotoxicity at 70.5 h was -5.12%.

`CNC(=O)c1cc2c(nc1NCC(C)C)CCN(S(C)(=O)=O)CC2`: the cytotoxicity at 70.5 h is -5.11%.

With `Cc1ccc(CN2Cc3ccnn3CC(COCc3cccnc3)C2)o1` (centres undefined), the cytotoxicity at 70.5 h is -5.79%.

Turning to `CCS(=O)(=O)N1CCc2cc(C(=O)NC)c(NCC(C)C)nc2CC1`, the cytotoxicity at 70.5 h was -4.65%.

Regarding `CNC(=O)c1cc2c(nc1NCC(C)C)CCN(S(=O)(=O)N(C)C)CC2`, the cytotoxicity at 70.5 h is -5.52%.

As to `O=C(c1n[nH]c2c1CCN(Cc1nccs1)C2)N1CCOCC1`, the cytotoxicity at 70.5 h stood at 4.7%.

Regarding `Cc1cnc(N2Cc3nccn3CC(Cn3nc(C)nc3C)C2)nc1` (centres undefined), the cytotoxicity at 70.5 h worked out at 0.499%.

For `Cn1cc(CN2CCO[C@H]3CN(Cc4ccsc4)C[C@H]32)cn1`, the cytotoxicity at 70.5 h was -14%.

`Cn1cc(CN2C[C@@H]3OCCN(CC4CCCC4)[C@@H]3C2)cn1`: the cytotoxicity at 70.5 h was -7.97%.

`CS(=O)(=O)N1CCCC12CCCN(C(=O)c1ccno1)C2` (centres undefined): the cytotoxicity at 70.5 h is -9.08%.

Regarding `O=C(CC1CC1)N1CCC2(CC(=O)N(c3cccc(F)c3)C2)C1` (centres undefined), the cytotoxicity at 70.5 h was -6.99%.

With `O=C(Cn1nc(Br)nc1Br)N1CCCC1`, the cytotoxicity at 70.5 h is -0.289%.

For `Cn1c(N)c2c(=O)n(C)c(-c3ccccc3)cc2c(C#N)c1=O`, the cytotoxicity at 70.5 h is -10.5%.

As for `Cn1c(N)c2c(=O)n(C)c(-c3ccc(Cl)cc3)cc2c(C#N)c1=O`, the cytotoxicity at 70.5 h was -8.81%.

With `COc1cc2nc(C)n(CC(=O)O)c(=O)c2cc1OC`, the cytotoxicity at 70.5 h is -8.36%.

Consider `O=C(Cn1ccc2ccc(Br)cc21)NC[C@@H]1CCCN2CCCC[C@H]12`, for which the cytotoxicity at 70.5 h was found to be 41.4%.

With `COc1cccc2c1ccn2CCC(=O)NCCCC(=O)O`, the cytotoxicity at 70.5 h was -3.23%.

As to `COC(=O)c1ccc(C2CC(=O)Oc3cc(C)[nH]c(=O)c32)cc1` (centres undefined), the cytotoxicity at 70.5 h amounted to 4.58%.

In the case of `O=C(NCCCN1CCOCC1)c1cc(-c2ccc3c(c2)CCO3)n[nH]1`, the cytotoxicity at 70.5 h was -0.337%.

Regarding `CC(C)S(=O)(=O)c1nnc(CCNC(=O)OC(C)(C)C)o1`, the cytotoxicity at 70.5 h came out at 29.5%.

As to `CCC(C)[C@H](NC(=O)c1cc(Br)ccc1-n1cnnn1)C(=O)OC` (some centres undefined), the cytotoxicity at 70.5 h came out at 42%.

As to `O=C(NCC1CC1)c1nc(COc2ccc3c(c2)OCO3)no1`, the cytotoxicity at 70.5 h came out at 0.603%.

On to `O=C(NCCc1c[nH]cn1)c1ccc2c(c1)C(=O)N(C1CC1)C2=O`, for which the cytotoxicity at 70.5 h amounted to 3.29%.

`O=C1N(c2ccc(F)cc2)Cc2nc(=O)n(Cc3cccc(Cl)c3)n21`: the cytotoxicity at 70.5 h is -0.858%.

With `O=C(COc1coc(CN2CCCCC2)cc1=O)Nc1ccccc1Cl`, the cytotoxicity at 70.5 h was -9.78%.

As to `CC1=Nc2c(c(=O)[nH]n2C(C)C)C(c2ccccc2)S1` (centres undefined), the cytotoxicity at 70.5 h was -3.86%.

As to `CC1=Nc2c(c(=O)[nH]n2C(C)C)C(c2cccs2)S1` (centres undefined), the cytotoxicity at 70.5 h is -8.68%.

Regarding `COc1ccc2nnc(CCCC(=O)NCCC3=CCCCC3)n2n1`, the cytotoxicity at 70.5 h was -4.24%.

Take `O=c1cc2c(nn1CN1CCN(c3cccc(Cl)c3)CC1)CCC2`: the cytotoxicity at 70.5 h was -6.87%.

As for `Cc1ccc(N2CC[C@@H]3CN(Cc4cccc(C)n4)C[C@@H]3C2)nn1`, the cytotoxicity at 70.5 h was -4.34%.

`Cn1nc(Cn2cccn2)c2c1CN(C1CCOCC1)C2`: the cytotoxicity at 70.5 h was -0.608%.

As for `O=C(C1CCC2(CCN(c3nncs3)CC2)CO1)N1CCCC1` (centres undefined), the cytotoxicity at 70.5 h is -1.78%.

As to `CCN1CC[C@]2(CN(Cc3nccs3)C[C@H]2c2ccccc2)C1=O`, the cytotoxicity at 70.5 h was -0.124%.

On to `O=C1NCC[C@]12CN(Cc1nccs1)C[C@H]2c1ccccc1`, for which the cytotoxicity at 70.5 h was -0.358%.

With `Fc1cnc(N2CC[C@@H]3O[C@@H](COCc4cccnc4)CC[C@@H]32)nc1`, the cytotoxicity at 70.5 h is -6.15%.

On to `O=S(=O)(NCC1OCCc2cn(CC3CCOCC3)nc21)C1CC1` (centres undefined), for which the cytotoxicity at 70.5 h was -3.73%.

On to `CN(C)C1CCN(C(=O)c2cc3c(s2)CCN3C(=O)C2CC2)CC1`, for which the cytotoxicity at 70.5 h is -2.71%.

Turning to `O=C(NCc1cccs1)[C@]12COC[C@H]1CN(c1ncccn1)C2`, the cytotoxicity at 70.5 h is -3.55%.

As to `CN(C)C[C@H]1OC[C@@H]2CCN(C(=O)Cc3cccs3)C[C@@H]21`, the cytotoxicity at 70.5 h was -9.21%.

On to `CN(C)S(=O)(=O)N1C[C@H]2CCC[C@@]2(COc2cccnc2)C1`, for which the cytotoxicity at 70.5 h is -5.8%.

As for `Cc1nc(C)n(CC2CN(Cc3cccs3)Cc3nccn3C2)n1` (centres undefined), the cytotoxicity at 70.5 h is -0.931%.

On to `CN(C)C(=O)c1n[nH]c2c1CN(Cc1nccs1)CC2`, for which the cytotoxicity at 70.5 h was -1.73%.

In the case of `CNC(=O)c1cc2c(nc1NCC(C)C)CCN(c1ncccn1)CC2`, the cytotoxicity at 70.5 h stood at 4.12%.

In the case of `O=S(=O)(C1CC1)N1CC[C@H]2OCC[C@@]2(COc2ncccc2F)C1`, the cytotoxicity at 70.5 h is -12.6%.

Consider `Fc1cnc(N2CC[C@@H]3O[C@@H](COCc4ccccn4)CC[C@@H]32)nc1`, for which the cytotoxicity at 70.5 h was 7.99%.

Take `Cc1ccc(CN2CCc3c(CN4CCCC4)n[nH]c3C2)s1`: the cytotoxicity at 70.5 h was -4.44%.

As to `COC[C@]12COC[C@H]1CN(Cc1ccc3ccccc3n1)C2`, the cytotoxicity at 70.5 h is -3.53%.

On to `Cc1ccc(N2C[C@H]3CCC[C@@]3(COc3cccnc3)C2)nn1`, for which the cytotoxicity at 70.5 h was -8.26%.

Consider `O=C(NCc1ccccn1)[C@H]1COC[C@H]2CN(c3ncccn3)C[C@H]21`, for which the cytotoxicity at 70.5 h is -4.8%.

As to `Cc1nc(C)n(CC2CN(Cc3ccncc3)Cc3nccn3C2)n1` (centres undefined), the cytotoxicity at 70.5 h was -4.22%.

With `Cc1ncsc1CN1C[C@@H](OCc2ccncc2)[C@H]2OCCC[C@H]21`, the cytotoxicity at 70.5 h came to 3.55%.

On to `COCCN1CCc2cc(C(=O)NC(C)C)c(NCC(C)C)nc2CC1`, for which the cytotoxicity at 70.5 h is -16.4%.

Take `CCO[C@@H]1CN(Cc2scnc2C)[C@@H]2CCCO[C@@H]21`: the cytotoxicity at 70.5 h is -10.5%.

`CN1CCN([C@@H]2CCN(CC3CCOC3)[C@H]2Cc2cnn(C)c2)CC1` (some centres undefined): the cytotoxicity at 70.5 h was -13%.

Take `CN(C)C[C@]12COC[C@H]1CN(Cc1ccc3ccccc3n1)C2`: the cytotoxicity at 70.5 h is -11.7%.

For `CN1CCN([C@@H]2CCN(C3CCOC3)[C@H]2Cc2cnn(C)c2)CC1` (some centres undefined), the cytotoxicity at 70.5 h was -12.4%.

As to `Cc1ncsc1CN1C[C@@H](OCc2ccccn2)[C@H]2OCCC[C@H]21`, the cytotoxicity at 70.5 h turned out to be 7.35%.

The values are drawn from ChEMBL document CHEMBL3507680, “University of Dundee, Gates Library screen for HepG2 cell viability”.
